Consider 53 molecules from patent publication US8846746B2, “Pyrazole compound and pharmaceutical use thereof” (Japan Tobacco Inc., priority 2011, dated 2014).

A word on the IC50: it is the midpoint of a concentration-inhibition curve. A higher IC50 goes with lower potency. Broadly, the inhibition is how much of the control response was suppressed. Read a high inhibition as a response far below the control.

Molecules are shown by their SMILES.

human SGLT1, sequence (P13866 whole entry): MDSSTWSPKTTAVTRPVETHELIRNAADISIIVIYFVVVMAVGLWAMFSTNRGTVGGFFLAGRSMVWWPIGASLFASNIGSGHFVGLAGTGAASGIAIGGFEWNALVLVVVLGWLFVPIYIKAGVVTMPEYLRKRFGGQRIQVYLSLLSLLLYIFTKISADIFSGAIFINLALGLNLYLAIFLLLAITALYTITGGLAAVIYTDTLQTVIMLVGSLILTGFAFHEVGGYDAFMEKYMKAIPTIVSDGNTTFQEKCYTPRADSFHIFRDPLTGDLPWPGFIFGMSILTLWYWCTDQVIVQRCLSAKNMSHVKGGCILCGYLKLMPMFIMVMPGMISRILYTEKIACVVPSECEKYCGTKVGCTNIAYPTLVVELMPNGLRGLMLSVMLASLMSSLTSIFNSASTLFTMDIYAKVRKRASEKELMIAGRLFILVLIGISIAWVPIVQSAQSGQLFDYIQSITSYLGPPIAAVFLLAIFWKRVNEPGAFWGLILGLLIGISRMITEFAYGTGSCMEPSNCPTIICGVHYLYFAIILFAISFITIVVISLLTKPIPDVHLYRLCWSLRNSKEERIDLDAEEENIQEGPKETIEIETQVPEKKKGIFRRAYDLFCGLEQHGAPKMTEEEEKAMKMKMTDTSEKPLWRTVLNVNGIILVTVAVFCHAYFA

One assay addresses human SGLT1 (Homo sapiens (Human), UniProt P13866). Description: SGLT1 inhibitory activity: 14C-AMG uptake into CHO-K1 cell line stably expressing human SGLT1. In kind it is cell-based. The settings on record: 14C-AMG uptake, CHO-K1 cells expressing human SGLT1. How it is done:
SGLT1 inhibitory activity of a test compound (IC50 value) was calculated based on an amount of intake into a cell of labeled α-methyl-D-glucopyranoside (^14C-AMG) which is transported by SGLT1.
1) Construction of Human SGLT1 Expression Plasmid
A DNA fragment containing human SGLT1, wherein NheI recognition and cleavage sequence was added upstream of a Kozac consensus sequence of the vector; and a stop codon (TAG) and a SalI recognition and cleavage sequence was added just downstream of a coding region of the human SGLT1, was amplified by PCR using pCMV6-hSGLT1 (OriGene) as a template. The purified DNA fragment was cleaved by restriction enzymes NheI and SalI, and the obtained fragment was ligated into pcDNA3.1 (+) which was cleaved by NheI and XhoI to construct human SGLT1 expression plasmid.
2) Establishment of Stable Cell Lines Expressing Human SGLT1
A human SGLT1 expression plasmid pcDNA-hSGLT1 was transfected into CHO-K1 cells by Lipofectamine-2000 (Invitrogen). The cells were cultured in the presence of G418 (Nakalai tesque) and drug-resistant cells were selected. A cell line having the highest S/B ratio of an amount of ^14C-AMG uptake per cell treated by solvent to an amount of ^14C-AMG uptake per cell treated by phlorizin (SGLT inhibitor) was selected from the drug-resistant cells as a stable cell lines expressing human SGLT1.
3) Evaluation of SGLT1 Inhibitory Activity
The stable cell line expressing human SGLT1 was seeded at 5×10^4 cells/well on BioCoat™ Poly-D-Lysine 96 well plate with Lid (Becton Dickinson and Company) and cultured at 37° C. under 5% CO2 overnight. The medium was replaced with 100 μL/well of a Na (−) buffer (140 mM choline chloride, 2 mM KCl, 1 mM MgCl2, 1 mM CaCl2, 10 mM HEPES, 5 mM Tris, pH7.4) followed by incubation for 20 minutes at 37° C. under 5% CO2. After removing the Na (−) buffer, a test compound solution which was prepared from Na (+) buffer (140 mM NaCl, 2 mM KCl, 1 mM MgCl2, 1 mM CaCl2, 10 mM HEPES, 5 mM Tris, pH7.4) containing BSA was added thereto at 40 μL/well. In addition, Na (+) buffer containing 8 kBq of ^14C-AMG and 2 mM AMG was added thereto at 40 μL/well, and was mixed well. Na (−) buffer containing BSA was added to a blank well at 40 μL/well and additionally adding a Na (+) buffer containing 8 kBq of ^14C-AMG and 2 mM AMG, and was mixed well. Cells were incubated for 1 hour at 37° C. under 5% CO2. After the reaction, the cells were washed twice with 100 μL/well of iced wash buffer (100 mM AMG, 140 mM choline chloride, 2 mM KCl, 1 mM MgCl2, 1 mM CaCl2, 10 mM HEPES, 5 mM Tris, pH7.4), then lysed in 50 μL/well of a 0.2N aqueous solution of NaOH. The cell lysate was transferred to OptiPlate96 (Perkin-Elmer) and 100 μL/well of MicroScint-40 (Perkin-Elmer) was dispensed. The radioactivity was counted by TOPCOUNT NXT (Perkin-Elmer).
A data was obtained by deducting the average value (CPM) of blank wells from the average value (CPM) of each treated well. The inhibition ratio (%) was calculated by the following formula: inhibition rate (%)=[(A−B)/A]×100, where A is a data of the solvent control, and B is a data of a test compound.
As for `CC(C)Cc1cccc(-c2cc(NC(=O)[C@@H]3CNC(=O)C3)nn2-c2ccccc2)c1` [Example 71], the IC50 is 3.5 nM.

As for `CCC(F)(F)c1cccc(-c2cc(NC(=O)[C@H]3CNC(=O)C3)nn2-c2ccccc2)c1` [Example 72], the IC50 worked out at 4.7 nM.

`CCC(F)(F)c1cccc(-c2cc(NC(=O)[C@@H]3CNC(=O)C3)nn2-c2ccccc2)c1` [Example 73] yielded an IC50 of 13 nM. This IC50 is about 2.8-fold higher than that of the molecule before.

`CCCc1cc(F)cc(-c2cc(NC(=O)[C@H]3CNC(=O)C3)nn2-c2ccccc2)c1` [Example 74]: half-maximal inhibition (IC50) was put at 3.1 nM.

`CCCc1cc(F)cc(-c2cc(NC(=O)[C@@H]3CNC(=O)C3)nn2-c2ccccc2)c1` [Example 75] gave an IC50 of 3.9 nM.

For `CCCc1cccc(-c2cc(NC(=O)[C@H]3CNC(=O)C3)nn2-c2cccc(C)c2)c1` [Example 76], the half-inhibitory concentration (IC50) came out at 1.7 nM.

The molecule `CCCc1cccc(-c2cc(NC(=O)[C@@H]3CNC(=O)C3)nn2-c2cccc(C)c2)c1` [Example 77] returned an IC50 of 2 nM.

Regarding `CC1(C)CCC=C(c2cc(NC(=O)[C@H]3CNC(=O)C3)nn2-c2ccccc2)C1` [Example 78], it took 7.7 nM to reach half-maximal inhibition (IC50).

Turning to `CC1(C)C=C(c2cc(NC(=O)[C@H]3CNC(=O)C3)nn2-c2ccccc2)CCC1` [Example 79], half-maximal inhibition (IC50) was put at 22 nM. This IC50 is about 2.9-fold higher than that of the molecule before.

`CC(C)(O)c1cccc(-c2cc(NC(=O)[C@H]3CNC(=O)C3)nn2-c2ccccc2)c1` [Example 80] displayed an IC50 of 220 nM.

On to `COC(C)(C)c1cccc(-c2cc(NC(=O)[C@H]3CNC(=O)C3)nn2-c2ccccc2)c1` [Example 82], for which the IC50 was 12 nM. This IC50 is about 18-fold lower than that of the molecule before.

Consider `COC(C)(C)c1cccc(-c2cc(NC(=O)[C@@H]3CNC(=O)C3)nn2-c2ccccc2)c1` [Example 83], for which the IC50 was found to be 11 nM.

On to `CC(C)(C)c1cccc(-c2cc(NC(=O)[C@H]3CNC(=O)C3)nn2C2CCCCCC2)c1` [Example 84], for which the IC50 turned out to be 7.2 nM.

Turning to `O=C1C[C@@H](C(=O)Nc2cc(-c3cccc(OC(F)(F)F)c3)n(C3CCCCCC3)n2)CN1` [Example 85], 50 nM corresponded to half-maximal inhibition (IC50).

`CCCc1cccc(-c2cc(NC(=O)[C@H]3CNC(=O)C3)nn2C(F)(F)F)c1` [Example 86]: the midpoint of inhibition, the IC50, lay at 54 nM.

As for `CCCc1cccc(-c2cc(NC(=O)[C@@H]3CNC(=O)C3)nn2C(F)(F)F)c1` [Example 87], inhibition was half-maximal at 110 nM (IC50).

The molecule `O=C1C[C@@H](C(=O)Nc2cc(-c3cccc(C4CC4)c3)n(-c3ccccc3)n2)CN1` [Example 92] showed an IC50 of 25 nM.

Turning to `O=C1C[C@H](C(=O)Nc2cc(-c3cccc(C4CC4)c3)n(-c3ccccc3)n2)CN1` [Example 93], the IC50 is 31 nM.

As to `CCCc1cccc(-c2cc(NC(=O)[C@H]3CNC(=O)C3)nn2-c2cccc(Cl)c2)c1` [Example 95], the midpoint of inhibition, the IC50, lay at 2.4 nM.

In turn, `CCCc1cccc(-c2cc(NC(=O)[C@@H]3CNC(=O)N3)nn2-c2ccccc2)c1` [Example 97] came in with an IC50 of 10 nM.

As to `CCCc1cccc(-c2cc(NC(=O)[C@H]3CNC(=O)C3)nn2Cc2ccccc2)c1` [Example 98], the IC50 is 30 nM. Compared with the last molecule, the IC50 is about 3-fold higher.

As for `CCCc1cccc(-c2cc(NC(=O)[C@@H]3CNC(=O)C3)nn2Cc2ccccc2)c1` [Example 99], the IC50 was 73 nM.

For `CCCc1cccc(-c2cc(NC(=O)[C@H]3CNC(=O)C3)nn2-c2ccccc2Cl)c1` [Example 100], the IC50 turned out to be 1.9 nM.

Molecule `CCCc1cccc(-c2cc(NC(=O)[C@@H]3CNC(=O)C3)nn2-c2ccccc2Cl)c1` [Example 101] gave an IC50 of 2.4 nM.

Molecule `CCCc1cccc(-c2cc(NC(=O)[C@H]3CNC(=O)C3)nn2-c2ccccc2C)c1` [Example 102] yielded an IC50 of 2.2 nM.

Turning to `CCCc1cccc(-c2cc(NC(=O)[C@H]3CNC(=O)C3)nn2-c2cccc(F)c2)c1` [Example 103], it took 5 nM to reach half-maximal inhibition (IC50).

Molecule `CCCc1cccc(-c2cc(NC(=O)[C@@H]3CNC(=O)C3)nn2-c2cccc(F)c2)c1` [Example 104] registered an IC50 of 9.8 nM. This IC50 lies about 2-fold higher than the previous one.

On to `O=C1C[C@@H](C(=O)Nc2cc(-c3cccc(OC(F)(F)F)c3)n(-c3ccc(Cl)cc3)n2)CN1` [Example 105], for which the midpoint of inhibition, the IC50, lay at 37 nM.

`O=C1C[C@@H](C(=O)Nc2cc(-c3cccc(OC(F)(F)F)c3)n(-c3cccc(Cl)c3)n2)CN1` [Example 106]: the midpoint of inhibition, the IC50, lay at 6.8 nM.

With `CCCc1cccc(-c2cc(NC(=O)[C@H]3CNC(=O)C3)nn2CCc2ccccc2)c1` [Example 107], the IC50 was determined as 44 nM.

For the molecule `CC(C)(C)c1cccc(-c2cc(NC(=O)[C@H]3CNC(=O)C3)nn2CCc2ccccc2)c1` [Example 109], half-maximal inhibition (IC50) required 65 nM.

In turn, `O=C1C[C@@H](C(=O)Nc2cc(-c3cccc(OC(F)(F)F)c3)n(CCc3ccccc3)n2)CN1` [Example 110] displayed an IC50 of 85 nM.

The molecule `CCCc1cccc(-c2cc(NC(=O)[C@H]3CNC(=O)C3)nn2CC2CCCCC2)c1` [Example 111] returned an IC50 of 46 nM.

`CCCc1cccc(-c2cc(NC(=O)[C@@H]3CNC(=O)C3)nn2CC2CCCCC2)c1` [Example 112] showed an IC50 of 83 nM.

For the molecule `CCCc1cccc(-c2cc(NC(=O)[C@H]3CNC(=O)C3)nn2CCC2CCCCC2)c1` [Example 113], the IC50 was 12 nM.

For `CCCc1cccc(-c2cc(NC(=O)[C@@H]3CNC(=O)C3)nn2CCC2CCCCC2)c1` [Example 114], it took 27 nM to reach half-maximal inhibition (IC50).

In turn, `O=C1C[C@@H](C(=O)Nc2cc(-c3cccc(O)c3)n(-c3ccccc3)n2)CN1` [Example 118] displayed an IC50 of 9300 nM.

`O=C1C[C@@H](C(=O)Nc2cc(-c3cccc(CO)c3)n(-c3ccccc3)n2)CN1` [Example 119] showed an IC50 of 570 nM.

The molecule `CCCc1cccc(-c2cc(NC(=O)[C@H]3CNC(=O)C3)nn2-c2ccc(OC)cc2)c1` [Example 121] came in with an IC50 of 11 nM.

In turn, `CCCc1cccc(-c2cc(NC(=O)[C@H]3CNC(=O)C3)nn2-c2cccc(OC)c2)c1` [Example 123] gave an IC50 of 5 nM.

Molecule `CCCc1cccc(-c2cc(NC(=O)[C@H]3CNC(=O)C3)nn2-c2cccc(OCC(=O)O)c2)c1` [Example 124] came in with an IC50 of 170 nM.

On to `CCCc1cccc(-c2cc(NC(=O)[C@@H]3CNC(=O)N3C)nn2-c2ccccc2)c1` [Example 125], for which the IC50 is 17 nM.

Take `CC(C)(C)c1cccc(-c2cc(NC(=O)[C@H]3CNC(=O)C3)nn2-c2cccc(Cl)c2)c1` [Example 126]: the IC50 worked out at 1.2 nM.

For the molecule `Cc1cccc(-n2nc(NC(=O)[C@H]3CNC(=O)C3)cc2-c2cccc(C(C)(C)C)c2)c1` [Example 127], inhibition was half-maximal at 1.4 nM (IC50).

`O=C1C[C@@H](C(=O)Nc2cc(-c3cccc(OC(F)(F)F)c3)n(CCC3CCCCC3)n2)CN1` [Example 128] came in with an IC50 of 17 nM.

As for `CC(C)(C)c1cccc(-c2cc(NC(=O)[C@H]3CNC(=O)C3)nn2CCC2CCCCC2)c1` [Example 129], it took 28 nM to reach half-maximal inhibition (IC50).

Turning to `O=C1C[C@@H](C(=O)Nc2cc(-c3cccc(OC(F)(F)F)c3)n(-c3ccccc3Cl)n2)CN1` [Example 130], the IC50 is 1.3 nM.

As for `O=C1C[C@@H](C(=O)Nc2cc(-c3cccc(OC(F)(F)F)c3)n(-c3ccccc3F)n2)CN1` [Example 131], 6.3 nM corresponded to half-maximal inhibition (IC50).

Turning to `CC(C)(C)c1cccc(-c2cc(NC(=O)[C@H]3CNC(=O)C3)nn2-c2ccccc2Cl)c1` [Example 132], it took 0.9 nM to reach half-maximal inhibition (IC50). This IC50 is about 7-fold lower than that of the molecule before.

Take `CCCc1cccc(-c2cc(NC(=O)[C@H]3CNC(=O)C3)nn2-c2ccccc2OC)c1` [Example 133]: the IC50 is 11 nM.

The same assay, now with this note: CHO-K1, at 0.1 uM.
For the molecule `CCCc1cccc(-c2cc(NC(=O)[C@@H]3CNC(=O)C3)nn2CCc2ccccc2)c1` [Example 108], the inhibition at 0.1 µM stood at 45%.

The same assay, now with this note: CHO-K1, at 0.3 uM.
`CC(C)(O)c1cccc(-c2cc(NC(=O)[C@@H]3CNC(=O)C3)nn2-c2ccccc2)c1` [Example 81] yielded an inhibition at 0.3 µM of 43%.

Staying with this assay, now noted: CHO-K1, at 1 uM.
`CCCc1cc(-c2cc(NC(=O)[C@H]3CNC(=O)C3)nn2-c2ccccc2)ccc1OCC(=O)O` [Example 122] gave an inhibition at 1 µM of 9%.
